Results on 20 compounds are retold here after patent US10874669B2 (WAYNE STATE UNIVERSITY, priority 2018, dated 2020).

For one test, the target named is cloned D3 receptors (Rattus norvegicus (Rat), UniProt P19020). The experiment in a line: [3H]spiperone displacement, cloned D3 receptors in HEK cells. The format is binding. The settings on record: means±SEM for 3 experiments. The source says: The following table provides inhibition constants for displacing [3H]spiperone binding to the cloned D2L and D3 receptors expressed in HEK cells. Results are means±SEM for 3 experiments each performed in triplicate. NR=Not repeated.
Chain of cloned D3 receptors (P19020 whole entry): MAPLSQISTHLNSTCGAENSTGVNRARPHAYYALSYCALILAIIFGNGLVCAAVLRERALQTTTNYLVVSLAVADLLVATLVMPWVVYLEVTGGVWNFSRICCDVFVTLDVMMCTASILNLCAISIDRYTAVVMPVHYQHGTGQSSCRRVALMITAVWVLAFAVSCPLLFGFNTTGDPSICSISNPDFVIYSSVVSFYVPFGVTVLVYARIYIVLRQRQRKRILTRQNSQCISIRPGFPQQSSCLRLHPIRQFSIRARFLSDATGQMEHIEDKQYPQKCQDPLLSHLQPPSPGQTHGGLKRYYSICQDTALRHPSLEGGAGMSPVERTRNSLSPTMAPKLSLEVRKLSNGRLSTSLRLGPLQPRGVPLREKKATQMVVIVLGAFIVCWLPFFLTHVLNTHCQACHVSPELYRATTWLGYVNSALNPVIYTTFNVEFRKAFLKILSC

In another test the target is cloned D2L receptors (Rattus norvegicus (Rat), UniProt P61169). Kind of test: [3H]spiperone displacement, cloned D2L receptors in HEK cells. Format: binding. The settings on record: means±SEM for 3 experiments. The source says: The following table provides inhibition constants for displacing [3H]spiperone binding to the cloned D2L and D3 receptors expressed in HEK cells. […] NR=Not repeated.
Chain of cloned D2L receptors (P61169 whole entry): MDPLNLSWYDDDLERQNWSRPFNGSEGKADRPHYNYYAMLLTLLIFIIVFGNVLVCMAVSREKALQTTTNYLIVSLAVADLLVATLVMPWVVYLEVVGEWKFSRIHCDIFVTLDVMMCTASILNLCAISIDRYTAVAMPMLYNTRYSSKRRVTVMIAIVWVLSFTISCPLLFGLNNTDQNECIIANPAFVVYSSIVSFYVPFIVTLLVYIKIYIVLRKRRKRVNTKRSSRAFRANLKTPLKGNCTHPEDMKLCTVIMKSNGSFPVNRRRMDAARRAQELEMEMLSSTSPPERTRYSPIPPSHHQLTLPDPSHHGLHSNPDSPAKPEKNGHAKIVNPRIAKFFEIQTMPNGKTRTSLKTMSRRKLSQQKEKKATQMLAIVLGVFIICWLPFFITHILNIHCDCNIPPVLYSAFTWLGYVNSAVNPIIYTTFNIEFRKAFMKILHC

Another test deals with cloned rat D2L receptors (Rattus norvegicus (Rat), UniProt P61169). Kind of test: [3H]spiroperidol competition binding, rat D2L receptors in HEK-293 cells. The settings on record: values of Table 3; for Ki: rat D2 in HEK-293 cells; for D2/D3: ratio of Ki values. An excerpt: (§1) All these procedures were described by us previously.
Chain of cloned rat D2L receptors (P61169 whole entry): as above
The target of a further test is cloned rat D3 receptors (Rattus norvegicus (Rat), UniProt P19020). Kind of test: [3H]spiroperidol competition binding, rat D3 receptors in HEK-293 cells. The settings on record: rat D3 in HEK-293 cells; values of Table 3. As to the method: A well established radioligand competition assay was carried out to evaluate binding affinity of the test compounds and were compared with that of the reference agent (S)-5-OH-DPAT (Table 3). Binding affinity to rat DA D2 and D3 receptors expressed in HEK-293 cells was determined as described by us previously. […] This indicated highest tolerance of the 4-substituted carbazole derivative for interaction with the D2 and D3 receptors.
Chain of cloned rat D3 receptors (P19020 whole entry): as the sequence (P19020 whole entry) above
as §1

For a further test, the target named is human DA D3 receptors (Homo sapiens (Human), UniProt P35462). Kind of test: [35S]GTPγS binding stimulation, human D3 receptors in CHO cells. The format is biochemical.
Chain of human DA D3 receptors (P35462 whole entry): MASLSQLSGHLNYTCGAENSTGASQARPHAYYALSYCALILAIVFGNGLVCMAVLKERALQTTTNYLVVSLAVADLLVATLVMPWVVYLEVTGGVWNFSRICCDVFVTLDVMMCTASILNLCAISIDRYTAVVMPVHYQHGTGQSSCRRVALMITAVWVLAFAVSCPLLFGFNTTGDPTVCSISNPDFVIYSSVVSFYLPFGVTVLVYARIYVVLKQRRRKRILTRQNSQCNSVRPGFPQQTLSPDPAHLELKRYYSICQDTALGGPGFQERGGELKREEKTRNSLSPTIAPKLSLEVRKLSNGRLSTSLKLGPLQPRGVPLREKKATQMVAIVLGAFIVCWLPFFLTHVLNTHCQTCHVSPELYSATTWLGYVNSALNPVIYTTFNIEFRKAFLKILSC
In the next test the target is human DA D2 receptors (Homo sapiens (Human), UniProt P14416). Kind of test: [35S]GTPγS binding stimulation, human D2 receptors in CHO cells. The format is biochemical.
Chain of human DA D2 receptors (P14416 whole entry): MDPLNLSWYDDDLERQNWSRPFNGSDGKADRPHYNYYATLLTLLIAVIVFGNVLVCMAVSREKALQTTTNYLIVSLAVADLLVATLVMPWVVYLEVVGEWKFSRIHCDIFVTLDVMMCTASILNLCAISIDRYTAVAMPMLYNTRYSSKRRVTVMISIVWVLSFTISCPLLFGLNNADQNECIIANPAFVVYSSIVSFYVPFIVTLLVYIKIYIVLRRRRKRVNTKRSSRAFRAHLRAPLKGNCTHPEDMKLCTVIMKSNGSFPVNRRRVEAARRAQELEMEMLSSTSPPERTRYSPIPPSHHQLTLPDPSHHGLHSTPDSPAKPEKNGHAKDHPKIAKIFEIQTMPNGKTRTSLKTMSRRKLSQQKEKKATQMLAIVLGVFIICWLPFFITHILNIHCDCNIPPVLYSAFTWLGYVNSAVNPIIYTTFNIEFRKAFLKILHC
The test system of test [1] is reserpine-induced hypolocomotion in rats. The experiment in a line: Reversal of reserpine-induced hypolocomotion in rats. The settings on record: 10 μMol/kg, ip.
Protocol: In this model depletion of catecholamines by reserpine results in catalepsy in rats.
The following commercially available drug was used in the experiment: reserpine hydrochloride (Alfa Aesar). […] The compounds for this study were administered in a volume of 0.1-0.2 mL for subcutaneous administration and 0.5-0.7 ml for interaperitoneal administration into each rat.
In rodent studies, animals were male and female Sprague-Dawley rats from Harlan (Indianapolis, Ind.) weighing 220-225 g unless otherwise specified. Animals were maintained in sawdust-lined cages in a temperature and humidity controlled environment at 22±1° C. and 60±5% humidity, respectively. A 12 h light/dark cycle was maintained, with lights on from 6:00 a.m. to 6:00 p.m. They were group-housed with unrestricted access to food and water. All experiments were performed during the light component.
Reserpine (5.0 mg/kg, sc) was administered 18 h before the injection of drug or vehicle. The rats were placed individually in the chambers for 1 h for acclimatization before administration of the test drugs or vehicle. Immediately after administration of drug or vehicle, animals were individually placed in Opto-Varimex 4 animal activity monitor chamber (Columbus Instruments, Ohio, USA) to start measuring locomotor activity. Locomotion was monitored for 6 h. […] The data were presented as horizontal activity (HACTV). […] The data were analyzed by one-way analysis of variance (ANOVA) followed by Dunnett's post hoc test.
Setting [2] is: compared with maximum stimulation by full agonist DA.

In the case of `CCCN(CCCCCc1ccc(O)c(O)c1)[C@@H]1CCc2nc(N)sc2C1` [(−)-34, (R)-4-(5-((2-Amino-4,5,6,7-tetrahydrobenzo[d]thiazol-6-yl)(propyl)amino)pentyl)benzene-1,2-diol], the Ki on cloned D3 receptors is 1.42 ± 0.14 nM; at cloned D2L receptors, 65.7 ± 11.7 nM.

`CCCN(CCN1CCN(c2ccc3c(c2)[nH]c2ccccc23)CC1)C1CCc2nc(N)sc2C1` (centres unmarked) [Compound 90a, N^6-(2-(4-(9H-carbazol-2-yl)piperazin-1-yl)ethyl)-N^6-propyl-4,5,6,7-tetrahydrobenzo-[d]thiazole-2,6-diamine]: the Ki on cloned rat D2L receptors amounted to 902 nM; at cloned rat D3 receptors it was 6.18 nM. Further, the D2/D3 on cloned rat D2L receptors came to 146.

Consider `CCCN(CCCCCc1ccc(O)c(O)c1)C1CCc2nc(N)sc2C1` (centres unmarked) [Compound 34, 4-(5-((2-Amino-4,5,6,7-tetrahydrobenzo[d]thiazol-6-yl)(propyl)amino)pentyl)benzene-1,2-diol], for which the inhibition constant Ki came to 2.59 ± 0.31 nM on cloned D3 receptors and 116 ± 8 nM at cloned D2L receptors.

Consider `CCCN(CCCCCc1ccc(O)c(OC)c1)[C@@H]1CCc2nc(N)sc2C1` [(−)-23, (R)-4-(5-((2-Amino-4,5,6,7-tetrahydrobenzo[d]thiazol-6-yl)(propyl)amino)pentyl)-2-methoxyphenol], for which the results for the inhibitory constant (Ki) on cloned D3 receptors and on cloned D2L receptors were 1.57 ± 0.41 nM and 68.3 ± 12 nM, respectively.

Take `CCCN(CCC/C=C\c1ccc(O)c(OC)c1)C1CCc2nc(N)sc2C1` (centres unmarked) [Compound 39, (Z)-4-(5-((2-amino-4,5,6,7-tetrahydrobenzo[d]thiazol-6-yl)(propyl)amino)pent-1-en-1-yl)-2-methoxyphenol]: the results for the Ki at cloned D3 receptors and on cloned D2L receptors were 23.3 ± 4 nM and 233 ± 8 nM, respectively.

As for `CCCN(CCN1CCN(c2cccc3[nH]c4ccccc4c23)CC1)[C@H]1CCc2nc(N)sc2C1` [(−)-91c, (S)—N^6-(2-(4-(9H-carbazol-4-yl)piperazin-1-yl)ethyl)-N^6-propyl-4,5,6,7-tetrahydrobenzo[d]thiazole-2,6-diamine], the EC50 is 1.67 nM on human DA D3 receptors (CHO cells, read-out: EC50 (GTPγS), D3) and 22.2 nM on human DA D2 receptors (CHO cells, read-out: EC50 (GTPγS), D2). The maximal effect (Emax) on human DA D3 receptors (setting [2]) was determined as 82%; on human DA D2 receptors (setting [2]) it was 57%.

For `CCCN(CCN1CCN(c2ccc3[nH]c4ccccc4c3c2)CC1)C1CCc2nc(N)sc2C1` (centres unmarked) [Compound 90b, N^6-(2-(4-(9H-carbazol-3-yl)piperazin-1-yl)ethyl)-N^6-propyl-4,5,6,7-tetrahydrobenzo[d]thiazole-2,6-diamine], the inhibition constant Ki stood at 612 nM at cloned rat D2L receptors and 3.12 nM on cloned rat D3 receptors. The D2/D3 at cloned rat D2L receptors came to 196.

Take `CCCN(CCCC1(O)C=CC(O)=CC1)C1CCc2nc(N)sc2C1` (centres unmarked) [Compound 54, 4-(3-((2-Amino-4,5,6,7-tetrahydrobenzo[d]thiazol-6-yl)(propyl)amino)propyl)-benzene-1,4-diol]: the inhibitory constant (Ki) at cloned D3 receptors came out at 11.9 ± 1.9 nM.

In the case of `CCCN(CCCCCc1cc(O)ccc1O)[C@@H]1CCc2nc(N)sc2C1` [(−)-36, (R)-2-(5-((2-Amino-4,5,6,7-tetrahydrobenzo[d]thiazol-6-yl)(propyl)amino)pentyl)benzene-1,4-diol], the affinity at cloned D3 receptors corresponds to a Ki of 0.78 ± 0.2 nM.

In the case of `CCCN(CCCCCc1cc(O)ccc1O)C1CCc2nc(N)sc2C1` (centres unmarked) [Compound 35, 2-(5-((2-Amino-4,5,6,7-tetrahydrobenzo[d]thiazol-6-yl)(propyl)amino)pentyl)benzene-1,4-diol], on cloned D3 receptors, the Ki is 1.01 ± 0.28 nM.

For `CCCN(CCC)CCc1cccc2c1CC(=O)N2` [ropinirole, reference compound], the “duration of locomotor activation” value in test [1] (locomotion monitored for 6 h) is “shorter duration of action”. Further, the “reversal of reserpine-induced akinesia / hypolocomotion (horizontal activity)” value in test [1] (reserpine 5 mg/kg sc, 18 h pretreatment, rats) is listed as “fast onset of activation of locomotion”.

`CCCN(C/C=C/c1ccc(O)c(OC)c1)C1CCc2nc(N)sc2C1` (centres unmarked) [Compound 63, (E)-4-(3-((2-amino-4,5,6,7-tetrahydrobenzo[d]thiazol-6-yl)(propyl)amino)prop-1-en-1-yl)-2-methoxyphenol]: the Ki worked out at 39.1 ± 5.4 nM on cloned D3 receptors and 4630 nM on cloned D2L receptors.

Turning to `CCCN(CCN1CCN(c2ccc3[nH]c4ccccc4c3c2)CC1)[C@H]1CCc2c(O)cccc2C1` [(−)-95b, (S)-6-((2-(4-(9H-carbazol-3-yl)piperazin-1-yl)ethyl)(propyl)amino)-5,6,7,8-tetra-hydronaphthalen-1-ol], the Ki was 61.6 nM on cloned rat D2L receptors and 1.94 nM on cloned rat D3 receptors.

`CCCN(CCN1CCN(CCn2c3ccccc3c3ccccc32)CC1)[C@H]1CCc2nc(N)sc2C1` [(−)-101, (S)—N^6-(2-(4-(2-(9H-carbazol-9-yl)ethyl)piperazin-1-yl)ethyl)-N^6-propyl-4,5,6,7-tetrahydrobenzo[d]thiazole-2,6-diamine]: at cloned rat D2L receptors, the Ki came out at 82.6 nM and the D2/D3 is reported as 12. For the same compound, on cloned rat D3 receptors, the affinity corresponds to a Ki of 7.18 nM.

For the compound `CCCN(CCCc1ccc(O)c(OC)c1)C1CCc2nc(N)sc2C1` (centres unmarked) [Compound 22, 4-(3-((2-Amino-4,5,6,7-tetrahydrobenzo[d]thiazol-6-yl)(propyl)amino)propyl)-2-methoxyphenol], the inhibition constant (Ki) came to 15.8 ± 2 nM at cloned D3 receptors and 2400 nM on cloned D2L receptors.

As for `CCCN(CCN1CCN(c2ccc3c(c2)[nH]c2ccccc23)CC1)[C@H]1CCc2nc(N)sc2C1` [(−)-91a, (S)—N^6-(2-(4-(9H-carbazol-2-yl)piperazin-1-yl)ethyl)-N^6-propyl-4,5,6,7-tetrahydrobenzo[d]thiazole-2,6-diamine], at cloned rat D2L receptors, the Ki came out at 504 nM and the D2/D3 was determined as 128. The compound further gave a Ki on cloned rat D3 receptors of 3.94 nM.

For `CCCN(CCN1CCN(c2cccc3[nH]c4ccccc4c23)CC1)C1CCc2nc(N)sc2C1` (centres unmarked) [Compound 90c, N^6-(2-(4-(9H-carbazol-4-yl)piperazin-1-yl)ethyl)-N^6-propyl-4,5,6,7-tetrahydrobenzo[d]thiazole-2,6-diamine], the inhibition constant (Ki) on cloned rat D2L receptors came to 76.9 nM; on cloned rat D3 receptors it was 7.8 nM. Moreover, the D2/D3 at cloned rat D2L receptors is on record as 9.86.

Consider `CCCN(CCN1CCN(CCn2c3ccccc3c3ccccc32)CC1)C1CCc2nc(N)sc2C1` (centres unmarked) [Compound 100, N^6-(2-(4-(2-(9H-carbazol-9-yl)ethyl)piperazin-1-yl)ethyl)-N^6-propyl-4,5,6,7-tetrahydrobenzo[d]thiazole-2,6-diamine], for which, on cloned rat D2L receptors, the affinity corresponds to a Ki of 435 nM and the D2/D3 worked out at 65.9. On cloned rat D3 receptors, this compound showed a Ki of 6.6 nM.

For `CCCN(CCCCCc1ccc(O)c(OC)c1)C1CCc2nc(N)sc2C1` (centres unmarked) [Compound 23, 4-(5-((2-Amino-4,5,6,7-tetrahydrobenzo[d]thiazol-6-yl)(propyl)amino)pentyl)-2-methoxyphenol], the Ki on cloned D2L receptors was found to be 175 ± 8 nM.

`CCCN(CCN1CCN(c2ccc3c(c2)C(=O)C(=O)N3)CC1)[C@H]1CCc2nc(N)sc2C1` [Compound 70]: the figures for the Ki on cloned D3 receptors and at cloned D2L receptors were 14.2 ± 3.8 nM and 162 ± 7 nM, respectively.
